For orientation: pIC50 means the IC50 on a negative log10 scale, so that one unit is a factor of ten. Higher therefore signals a small IC50.

Here are results for seven molecules from patent US20110105603A1, “COMPOSITIONS AND METHODS FOR TREATING BETA-AMYLOID RELATED DISEASES” (priority 2009, published 2011).

The conditions of series [1]: cited from earlier work.
For series [2] the following is noted: animals, radioactive AB-007; cited from earlier work.
A further series has as its system BACE1. Kind of series: Example 9: brain BACE1 activity in guinea pigs. It is filed as in vivo, guinea pig. Particulars: once-a-day oral. As for the experimental part: Guinea Pig Gavage Dosing: Guinea pigs were gavaged daily for one week. Guinea pigs were lightly anesthetized with isoflurane prior to gavaging. 250 μl of compound solution was gavaged daily per animal and animals were sacrificed 4 hrs after the last dosing. The brain BACE1 activity in guinea pigs was measured by Beta secretase activity was determined using a fluorometric assay kit from Abcam (ab65357) as described by the manufacturer.

Series [3] has as its system brain Aβ40 and brain Aβ42. Put plainly: Example 8: brain Aβ40 and Aβ42 ELISA after oral gavage in wild-type guinea pigs. It is filed as in vivo. Particulars: guinea pig, 10 mg/kg/day oral, 7 days. (ELISA stands for enzyme-linked immunosorbent assay.)
The subject of series [4] is cathepsin B. Put plainly: Example 9: brain cathepsin B activity in guinea pigs. It is filed as in vivo, guinea pig. Particulars: once-a-day oral. As for the experimental part:
Guinea Pig Gavage Dosing: Guinea pigs were gavaged daily for one week. Guinea pigs were lightly anesthetized with isoflurane prior to gavaging. 250 μl of compound solution was gavaged daily per animal and animals were sacrificed 4 hrs after the last dosing.
The brain cathepsin B activity in guinea pigs was measured as follows: Cathepsin B activity was determined using a fluorometric assay kit from Abcam, Inc. (catalog ab65300; Cambridge, Mass.) as described by the manufacturer.

The test system of another series is transgenic APPlon mice. Put plainly: Example 9: Morris water maze, spatial memory deficit in transgenic APPlon mice. The conditions noted are these: E64d-doped chow 1 or 3 months, either age group.
In the next series the test system is healthy human volunteers. The conditions noted are these: single or continuous 1 week oral administration at about 5 mg/kg/day; cited from earlier work.
For series [5] the following is noted: oral; cited from earlier work.
The test system of the next series is Aβ40 and Aβ42. Put plainly: Example 9: brain, CSF and plasma Aβ after once-a-day gavage in guinea pigs. It is filed as in vivo, guinea pig. Particulars: once-a-day for one week oral. The source says: Guinea Pigs. Guinea Pigs (Harley strain, average weight 400 g corresponding to animals about 6 weeks old) were obtained from Charles River (Wilmington, Mass.). The animals were given free access to standard chow and water before and during the experiment. Gavage Formulation: Delivering a drug by gavage offers the advantage of accurate dosing but is traumatic and thus only suitable for relatively short dosing periods. Gavage delivery was used for the guinea pig work. E64d was resuspended in DMSO at indicated concentrations (see Figures, and below) and guinea pigs were gavaged daily using a feeding tube. Vehicle control animals were provided DMSO alone. Guinea Pig Gavage Dosing: Guinea pigs were gavaged daily for one week. Guinea pigs were lightly anesthetized with isoflurane prior to gavaging. 250 μl of compound solution was gavaged daily per animal and animals were sacrificed 4 hrs after the last dosing.

A further series has as its system dogs. Particulars: cited from earlier work.
A further series concerns rats. The conditions noted are these: cited from earlier work.
In series [6] the test system is dogs with canine dementia. Particulars: in one month; cited from earlier work.
In series [7] the target is Cathepsin B (Homo sapiens, UniProt P07858). Put plainly: biochemical.

pIC50: −log10 of the molar value.

Text for transgenic APPlon mice: Transgenic AD Mice. Transgenic mice expressing human APP containing the wt β-secretase site and the London mutant γ-secretase site sequences (also called “transgenic APPlon mice”, or “London APP mice”) were generated at the Ralph A. Johnson VA Medical Center (Charleston, S.C.) by methods previously described, see e.g., Hook, et al. (2008) J. Biol. Chem. 283:7745-7753. Briefly, APPLn was generated using site-directed mutagenesis to insert the V7171 London mutation into human APP cDNA. The mouse strain was created in a C57BL/6 mouse background using the Thy-1.2 expression cassette driven by the Thy-1 promoter containing an SV40 polyadenylation site. Mice were given free access to food and water before and during the experiment. […]
The memory deficit in transgenic APPln mice (APPlon mice) was measured using the Morris water maze test. Briefly, the spatial memory capability of each animal was assessed by the Morris water maze test as described e.g., by S. Mueller-Steiner (2006) Neuron 51:703-714; using catalog part no. […] Two days following the nonspatial pretraining, the hidden platform was placed in the center of one quadrant of the pool, the animal was released facing the pool wall in a random fashion, the time was recorded (latency period), and the distance traveled to reach the platform was measured using video recording (Smart Video Tracking System; SD Instruments).

As for `CCOC(=O)[C@H]1O[C@@H]1C(=O)N[C@@H](CC(C)C)C(=O)NCCC(C)C` (relative stereo) [AB-007, (2S,3S)-trans-epoxysuccinyl-L-leucyl-amido-3-methylbutane ethyl ester], the “effect on the central nervous system” value in series [1] (high oral doses (500 mg/kg and 1 g/kg)) was “depress the central nervous system, causing sedation and mild inhibition of pentetrazol-induced seizure”. The “influence on vision or hearing” value in [1] (maximal intravenous or oral doses, rats) is “do not influence vision or hearing”. Further, in series [2], the “concentration in all other organs, including the brain” value was “corresponding to the plasma concentration or concentrations lower than plasma” and the “kidney concentration relative to plasma concentration” value is reported as roughly 12 times. Further, in the series on BACE1, the “brain BACE1 activity” value is “increase”. The “reduction of brain Aβ42 relative to vehicle control” value in series [3] is reported as 42%. Besides, the “brain cathepsin B activity” value in the series with cathepsin B [4] is recorded as “dose response reduction”. Also, the “mean latency period relative to age-matched controls” value with transgenic APPlon mice was “significantly reduced”. In the series with healthy human volunteers, the “hematological tests, blood chemistry, urinalyses” value is on record as “no changes” and the “pulse, blood pressure, body temperature, grip force, electrocardiogram, physician observations” value is recorded as “no change”. Besides, the “conversion in the gut to E64c” value in series [5] was “rapidly and completely converted”. Further, in the series on Aβ40 and Aβ42, the “CSF Aβ” value is given as “dose response reduction”, the “CSF Aβ(42)” value is reported as “dose response reduction”, the “brain Aβ(40)” value is on record as “dose response reduction” and the “brain Aβ(42)” value is given as “dose response reduction”. In the series on Aβ40 and Aβ42, the “plasma Aβ(40)” value is on record as “dose response reduction” and the “plasma Aβ(42)” value is “dose response reduction”. Besides, in the series on dogs (dog, in vivo), the “chronic toxicity no-effect dose level” value is less than 5 mg/kg/day. In addition, the subacute no-effect dose with dogs (oral, dogs) is given as less than 40 mg/kg/day. Moreover, the subacute no-effect dose entry in the series on rats (oral, rats) is listed as “under 80 mg/kg/day”. Further, in the series with rats (rat, in vivo), the “chronic toxicity no-effect dose level” value is “below 2 mg/kg/day”; the “target organs for toxicity” value is “liver and kidney”. Further, the “hepatic injury, species sensitivity” value in the series on rats (rats versus other species) is given as “hepatic injury seen in rats does not occur in other species”.

For the molecule `C#CCN(C)[C@H](C)Cc1ccccc1` [Anipryl], in series [6], the “affected dogs with improved behavior” value is “about 75%”.

Consider `[2H]C([2H])([2H])C(C)C[C@H](NC(=O)[C@H]1O[C@@H]1C(=O)O)C(=O)NCCC(C)C` (stereo partly drawn) [Compound 1B, (2S,3S)-3-((S)-1-(Isopentylamino)-4-methyl-d3-1-oxopentan-2-ylcarbamoyl)oxirane-2-carboxylic acid], for which the pIC50 on Cathepsin B [7] was 8.70.

Consider `[2H]C([2H])([2H])C([2H])(C[C@H](NC(=O)[C@H]1O[C@@H]1C(=O)O)C(=O)NCCC(C)C)C([2H])([2H])[2H]` [Compound 2B, (2S,3S)-3-((S)-4,5,5,5-d4-1-(isopentylamino)-1-oxo-4-(methyl-d3)pentan-2-ylcarbamoyl)oxirane-2-carboxylic acid], for which the pIC50 against Cathepsin B [7] was 8.82.

In turn, `[2H][C@@](CC(C)C)(NC(=O)[C@H]1O[C@@H]1C(=O)O)C(=O)NCCC(C)C` [Compound 3B, (2S,3S)-3-((S)-2-d1-1-(isopentylamino)-4-methyl-1-oxopentan-2-ylcarbamoyl)oxirane-2-carboxylic acid] gave a pIC50 against Cathepsin B [7] of 8.72.

`CC(C)CCNC(=O)[C@H](CC(C)C)NC(=O)[C@H]1O[C@@H]1C(=O)O` [Compound E64c] had a negative-log IC50 (pIC50) against Cathepsin B [7] of 9.00.

As to `[2H]C([2H])([2H])C([2H])(CCNC(=O)[C@H](CC(C)C)NC(=O)[C@H]1O[C@@H]1C(=O)OCC)C([2H])([2H])[2H]` [Compound E64d7], the “brain BACE1 activity” value in the series on BACE1 is “increase”. Also, the “brain cathepsin B activity” value in the series on cathepsin B [4] is given as “dose response reduction”. For the same molecule, in the series on Aβ40 and Aβ42, the “CSF Aβ” value was “dose response reduction”, the “CSF Aβ(42)” value is given as “dose response reduction”, the “brain Aβ(40)” value is recorded as “dose response reduction” and the “brain Aβ(42)” value is listed as “dose response reduction”. Moreover, in the series with Aβ40 and Aβ42, the “plasma Aβ(40)” value is listed as “dose response reduction” and the “plasma Aβ(42)” value was “dose response reduction”.
